Where “and” joins values, the source holds several entries; their conditions need not be identical. Equal values may be shown once.
Columns and labels:
Format in all cases: cell-based, human
[1] = test system: HK-2; experiment: Reduction of toxicity (rescue) experiment with glucose transport inhibitors, LIVE/DEAD viability; conditions: for cell viability / cell death: cultures treated with nephrotoxic drug plus inhibitor vs drug alone
Method: (§1) Empagliflozin (5 μM) a potent SGLT2 inhibitor, phloretin (1 mM) inhibits the apicobasal shuttling of the GLUT2, phlorizin (200 μM) is a mild inhibitor of SGLT1 and SGLT2. When all three inhibitors were used together, the mix was referred to as a cocktail. All experiments were performed on a 96 well plate, in triplicates with controls with no drugs, or inhibitors alone. First, cells were incubated for 1 hour with inhibitors alone and then drugs were added with inhibitors for 24 hours for LIVE DEAD assay or 48 hours for Lipid accumulation (LipidTox Assay). Cell viability was determined using LIVE/DEAD Cytotoxicity kit (Molecular Probes, USA) according to manufacturer directions. Briefly, cultures were incubated for 30 min with 2 μM calcein AM and 4 μM ethidium homodimer-1. Live cells were positive for green fluorescence due to hydrolysis of the acetoxymethyl ester group by intracellular esterases. Dead cells were positive for red fluorescence due to ethidium homodimer-1 binding intracellular DNA, possible in […]. Cellular viability was expressed as live over dead ratio and normalized based on negative (DMSO/DDW/PBS) controls. Fluorescence micrographs were analyzed for total fluorescence using ImageJ for 9 repeats for each sample. Error bars indicate ±SEM.
(§2) After staining, plates were mounted on the fluorescent microscope for quantification. Rescue was achieved when significant percentage of live cells and/or a reduced amounts of dead cells was observed as compared with cells treated with the drug only.

[2] = test system: HK-2; experiment: Reduction of toxicity (rescue) experiment with glucose transport inhibitors, lipid accumulation (LipidTox); conditions: for lipotoxicity: cultures treated with the three nephrotoxic compounds
Method: Quantification of lipid accumulation was performed using HCS LipidTOX™ Phospholipidosis and Steatosis Detection Kit (ThermoFisher). Briefly, HK-2 and RPTEC cells were incubated with different concentrations of compounds dissolved in culture medium and 1× Phospholipidosis Detection Reagent for 48 h, subsequently fixed in 4% PFA. Cells were then stained with 1× Green LipidTOX™ for neutral lipids for 45 min and counterstained with 1 μg/mL Hoechst 33258. Staining intensity was normalized to number of Hoechst 33258 positive nuclei.
as §1, §2

[3] = test system: HK-2 organoids; experiment: Metabolic flux analysis (glucose, lactate, glutamine, oxygen) of perfused organoids; conditions: for ATP production drop / Lipogenesis increase / glycolysis drop: 31 hours exposure to sub-toxic concentration (12.5 μM Cyclosporine A, 32 μM Cisplatin, 32 mM Gentamicin)
Method: Amperometric glucose and lactate sensors were purchased from Innovative Sensor Technology (IST, Switzerland). […] Both sensors produce H2O2 in amounts proportional to the measured metabolite, which is detected with platinum electrodes under polarized condition. […] Measurements were carried out and calibrated to sensitivity decrease by on-chip potentiostat (IST, Switzerland). Glucose uptake, oxygen uptake, and lactate production rates were measured by calculating the change in metabolite concentration between the bioreactor in- and outflow as a function of perfusion rate and cell number. Metabolic rates were calculated assuming negligible contribution to oxygen uptake by fatty acid oxidation and enzymatic activity. […] Based on these assumptions, oxidative phosphorylation flux was calculated by dividing the oxygen uptake rate by six. It was estimated that 32 ATP molecules were generated by complete oxidation of one molecule of glucose. Glycolysis flux was calculated by dividing lactate production rate by two, with maximal rate defined by glucose uptake rate minus the oxidative phosphorylation flux. ATP production in glycolysis was estimated to be two molecules per molecule of glucose. It was assumed that any glucose left over was directed toward lipogenesis, because the contribution of pentose phosphate pathway in non-proliferating cells is minor. […] ATP production in glutaminolysis was estimated to be three molecules per molecule of lactate generated.

[4] = test system: HK-2 proximal tubule cells; experiment: Glucose accumulation assay (2-NDBG); conditions: for 2-NBDG fluorescence: concentrations a thousand-fold under the threshold of cellular damage
Method: To monitor glucose uptake in cells, a fluorescent analog of glucose 2-(N-(7-Nitrobenz-2-oxa-1,3-diazol-4-yl) Amino)-2-Deoxyglucose (2-NDBG), (Invitrogen, CA, USA) was used. After overnight drug exposure, the medium was removed and replaced with Dulbecco's Phosphate Buffered Saline (Sigma, USA) with 17 mM and 6 mM of 2-NDBG to match glucose concentration of HK-2 and RPTEC culture medium respectively, incubated for 1 hour at 37° C., 5% CO2 before imaging. 2-NDBG is taken up in mammalian cells by GLUT-2, if its activity or shuttling is disturbed, 2-NDBG will accumulate in the cells, showing higher green intensity.

[5] = test system: HK-2 organoids; experiment: Real-time oxygen uptake / time to onset in perfused organoid bioreactor; conditions: for Oxygen uptake drop: after 33 hours continuous perfusion, 12.5 μM Cyclosporine A, 32 μM Cisplatin, 32 mM Gentamicin
Method: Polydimethylsiloxane (PDMS) microwell inserts were sterilized with 70% EtOH and 30-min exposure to UV light prior to cell seeding. Kidney cells were trypsinized, counted, and centrifuged at 300×g for 5 min at 4° C. […] Then, 1.35 μl of Matrigel® suspension containing cells and oxygen-sensing beads was seeded in each well using […] M P10M (Gilson, UK). The inoculated microwell insert was then incubated for 30 min at 37° C. to polymerize the gel. Following polymerization, the insert was immersed in 3 ml of cell culture medium and incubated overnight at 37° C. prior to being sealed in the bioreactor housing. Bioreactors were then placed in a climate control chamber on an IX81 fluorescence microscope (Olympus, Japan). Bioreactors were continuously perfused with cell culture medium noted above supplemented with 10 mM HEPES and 1% DMSO at a flow rate of 5 μL/min. Drug induction started upon metabolic stabilization. Stabilization was assessed by daily measurements of oxygen and metabolites.
Real-time oxygen measurements were performed optically using on-chip lifetime-based luminescence quenching (LBLQ). […] Oxygen acts as a quencher, leading to a decrease in decay time and signal intensity with increasing concentration. We chose to measure decay time, rather than signal intensity, as it is not sensitive to changes in probe concentration or excitation intensity over the course of the experiment. […] To accurately measure decay time, we chose phase modulation in which sinusoidal amplitude-modulated light is shifted in phase due to oxygen quenching. […] Measurements were carried out by averaging five consecutive 4-s exposures. Measurements were taken every 15 min.
Bioreactors were perfused with different concentrations of compounds dissolved in culture medium. […] TC50 concentrations were determined using MATLAB by sigmoidal curve fitting. […] Time to onset was analyzed by MATLAB based on LPF and trend assessment.

[6] = organoids under continuous perfusion

Molecule: O=C(CCc1ccc(O)cc1)c1c(O)cc(O)cc1O [Phloretin]
- cell viability / cell death [1]: restores cell viability
- lipotoxicity [2]: significantly alleviates lipotoxicity

Molecule: OC[C@H]1O[C@@H](c2ccc(Cl)c(Cc3ccc(O[C@H]4CCOC4)cc3)c2)[C@H](O)[C@@H](O)[C@@H]1O [Empagliflozin]
- cell viability / cell death [1]: restores cell viability
- lipotoxicity [2]: significantly alleviates lipotoxicity

Molecule: N.N.[Cl][Pt][Cl] [Cisplatin]
- ATP production drop [3]: 53%
- Lipogenesis increase [3]: 57.6% and 57%
- glycolysis drop [3]: 98.4% and 98%
- Overall glutamine uptake ([3]; during exposure): remained constant
- 2-NBDG fluorescence [4]: doubles
- Time to onset (TTO) of response ([5]; HK-2 organoids, increasing concentrations, dose-dependent decrease): 13 to 22 h
- Oxygen uptake drop [5]: 36%
- time of induced damage following exposure [5, 6]: at least 14 hours

Molecule: O=C(CCc1ccc(O)cc1)c1c(O)cc(O)cc1O[C@@H]1O[C@H](CO)[C@@H](O)[C@H](O)[C@H]1O [Phlorizin]
- increase in cell viability ([1]; CsA treated cultures, compared to cells treated with CsA alone): 2 fold
- cell viability / cell death [1]: restores cell viability
- decrease in phospholipids content ([2]; CsA treated cultures, compared to CsA alone): 2 fold
- lipotoxicity [2]: significantly alleviates lipotoxicity

Molecule: Gentamicin
- lactate over glucose ratio drop ([3]; 32 mM Gentamicin, after 10 h exposure): 85%
- ATP production drop [3]: 29%
- Lipogenesis increase [3]: 438%
- glycolysis drop [3]: 65%
- glucose uptake increase ([3]; after 31 hours): +196%
- lactate release decrease ([3]; after 31 hours): −65.2%
- Glutamine uptake change ([3]; at 31 hours): +14.1%
- Glutamine uptake change ([3]; at approximately 16 hours): +76%
- shift of organoid metabolism ([3]; bioreactor studies): significantly shift proximal tubular organoid metabolism towards lipogenesis
- Relative 2-NDBG accumulation, increase in glucose content ([4]; HK2 cells, sub-toxic 15 h exposure): 2 fold
- 2-NBDG fluorescence [4]: doubles
- Oxygen uptake drop [5]: 10%
- oxygen response upon perfusion [5, 6]: acute jump in oxygen uptake within an hour after exposure
- viability at sub-toxic concentration ([5]; sub-toxic concentration used for flux analysis): > 95%

Reference: patent publication US20210379094A1, “METHOD FOR REDUCING DRUG-INDUCED NEPHROTOXICITY” (Yissum Research Development Company of the Hebrew …, priority 2019, published 2021)
